Measured values taken from ChEMBL document CHEMBL1138012, “Parallel synthesis of acylsemicarbazide libraries: preparation of potent cyclin dependent kinase (cdk) inhibitors” (Bioorg Med Chem Lett, 2004).

Key:
[1] = target: Cyclin-dependent kinase 2/cyclin E (Homo sapiens, UniProt P24941); experiment: Inhibitory concentration against Cyclin dependant kinase 2-cyclinE; format: protein-complex assay
[2] = target: Cyclin-dependent kinase 4/cyclin D1 (Homo sapiens, UniProt P11802); experiment: Inhibitory concentration against Cyclin dependant kinase 4-cyclinD1; format: protein-complex assay
HCT-116 = experiment: Inhibitory concentration against human colon cancer HCT116 cell line; format: functional, cell-based

Sequence of Cyclin-dependent kinase 4/cyclin D1 (P11802 whole entry): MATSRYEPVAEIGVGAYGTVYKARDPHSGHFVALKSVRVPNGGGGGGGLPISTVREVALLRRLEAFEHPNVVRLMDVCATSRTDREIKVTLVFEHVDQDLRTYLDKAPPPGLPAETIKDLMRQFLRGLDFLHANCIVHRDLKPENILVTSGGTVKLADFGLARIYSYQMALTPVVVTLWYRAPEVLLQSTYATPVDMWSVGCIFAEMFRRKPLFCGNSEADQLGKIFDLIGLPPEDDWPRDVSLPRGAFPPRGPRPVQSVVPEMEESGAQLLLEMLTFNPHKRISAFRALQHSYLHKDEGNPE
Sequence of Cyclin-dependent kinase 4/cyclin D1 (P24385 whole entry, further chain): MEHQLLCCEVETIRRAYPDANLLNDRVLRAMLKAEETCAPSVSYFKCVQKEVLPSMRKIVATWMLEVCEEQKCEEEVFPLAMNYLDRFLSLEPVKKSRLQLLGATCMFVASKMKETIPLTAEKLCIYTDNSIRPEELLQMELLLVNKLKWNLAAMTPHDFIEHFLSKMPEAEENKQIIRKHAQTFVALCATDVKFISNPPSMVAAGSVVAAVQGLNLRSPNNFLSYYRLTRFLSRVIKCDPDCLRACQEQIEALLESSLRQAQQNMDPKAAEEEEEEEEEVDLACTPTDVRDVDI

Structure (SMILES) | IC50 [1] [µM] | IC50 [2] [µM] | IC50 (HCT-116) [µM]
COc1ccc(-c2[nH]nc3c2C(=O)c2c(NC(=O)NNC(=O)c4cccc([N+](=O)[O-])c4)cccc2-3)cc1 | 0.02 | 0.01 | 
COc1ccc(-c2[nH]nc3c2C(=O)c2c(NC(=O)NNC(=O)Nc4ccccc4)cccc2-3)cc1 | 0.01 |  | 0.28
COc1ccc(-c2[nH]nc3c2C(=O)c2c(NC(=O)NNC(=O)c4cc(N)cc(N)c4)cccc2-3)cc1 | 0.03 | 0.01 | 
COc1ccc(-c2[nH]nc3c2C(=O)c2c(NC(=O)NNC(=O)c4ccccc4O)cccc2-3)cc1 | 0.009 | 0.06 | 0.08
COc1ccc(-c2[nH]nc3c2C(=O)c2c(NC(=O)NNC(=O)C(C)C)cccc2-3)cc1 | 0.01 | 0.0065 | 
COc1ccc(-c2[nH]nc3c2C(=O)c2c(NC(=O)NNC(=O)c4ccc(O)cc4O)cccc2-3)cc1 | 0.01 | 0.01 | 0.25
COc1ccc(-c2[nH]nc3c2C(=O)c2c(NC(=O)NNC(=O)c4ccc5ccccc5c4)cccc2-3)cc1 | 0.03 | 0.01 | 0.12
COc1ccc(-c2[nH]nc3c2C(=O)c2c(NC(=O)NNC(=O)c4ccccc4OC)cccc2-3)cc1 | 0.01 |  | 0.04
COc1ccc(-c2[nH]nc3c2C(=O)c2c(NC(=O)NNC(=O)c4cccc(C)c4)cccc2-3)cc1 | 0.01 | 0.007 | 
COc1ccc(C(=O)NNC(=O)Nc2cccc3c2C(=O)c2c(-c4ccc(OC)cc4)n[nH]c2-3)cc1 | 0.01 | 0.01 | 
COc1ccc(-c2[nH]nc3c2C(=O)c2c(NC(=O)NNC(=O)c4ccc(C)cc4)cccc2-3)cc1 | 0.02 |  | 0.14
COc1ccc(-c2[nH]nc3c2C(=O)c2c(NC(=O)NNC(N)=O)cccc2-3)cc1 | 0.13 |  | 
COc1ccc(-c2[nH]nc3c2C(=O)c2c(NC(=O)NNC(=O)Cc4ccccc4)cccc2-3)cc1 | 0.03 | 0.02 | 
COc1ccc(-c2[nH]nc3c2C(=O)c2c(NC(=O)NNC(=O)c4ccc(N)cc4)cccc2-3)cc1 | 0.01 | 0.01 | 0.07
COc1ccc(-c2[nH]nc3c2C(=O)c2c(NC(=O)NNC(=O)c4ccncc4)cccc2-3)cc1 | 0.01 | 0.009 | 0.19
COc1ccc(-c2[nH]nc3c2C(=O)c2c(NC=O)cccc2-3)cc1 | 0.24 | 0.4 | 
COc1ccc(-c2[nH]nc3c2C(=O)c2c(NC(=O)NNC(=O)c4cccc(N)c4)cccc2-3)cc1 | 0.01 | 0.007 | 0.08
COc1ccc(-c2[nH]nc3c2C(=O)c2c(NC(=O)NNC(C)=O)cccc2-3)cc1 | 0.03 | 0.05 | 
COc1ccc(-c2[nH]nc3c2C(=O)c2c(NC(=O)NNC(=O)c4cc(Cl)ccc4Cl)cccc2-3)cc1 | 0.03 | 0.02 | 
COC(=O)NNC(=O)Nc1cccc2c1C(=O)c1c-2n[nH]c1-c1ccc(OC)cc1 | 0.01 | 0.008 | 0.05
COc1ccc(-c2[nH]nc3c2C(=O)c2c(NC(=O)NNC(=O)c4ccc(O)cc4)cccc2-3)cc1 |  | 0.005 | 1.1
COc1ccc(-c2[nH]nc3c2C(=O)c2c(NC(=O)NNC(=O)c4ccccc4)cccc2-3)cc1 | 0.01 | 0.007 | 0.03
COc1ccc(-c2[nH]nc3c2C(=O)c2c(NC(=O)NNC(=O)c4cccnc4)cccc2-3)cc1 | 0.01 | 0.009 | 0.19
COc1ccc(-c2[nH]nc3c2C(=O)c2c(NC(=O)NNC(=O)c4cccc5ccccc45)cccc2-3)cc1 | 0.05 |  | 
COc1ccc(-c2[nH]nc3c2C(=O)c2c(NC(=O)NNC(=O)C(N)=O)cccc2-3)cc1 | 0.09 | 0.24 | 1.2
COc1ccc(-c2[nH]nc3c2C(=O)c2c(NC(=O)NNC(=O)c4cc(OC)cc(OC)c4)cccc2-3)cc1 | 0.04 | 0.02 | 
COc1ccc(-c2[nH]nc3c2C(=O)c2c(NC(=O)NNC(=O)CCc4ccc(O)cc4)cccc2-3)cc1 | 0.01 | 0.009 | 
COc1ccc(-c2[nH]nc3c2C(=O)c2c(NC(=O)NNC(=O)c4ccc(O)c(N)c4)cccc2-3)cc1 | 0.02 | 0.007 | 
COc1ccc(-c2[nH]nc3c2C(=O)c2c(NC(=O)NNC(=O)c4ccc(O)c(O)c4)cccc2-3)cc1 | 0.01 | 0.005 | 
COc1ccc(-c2[nH]nc3c2C(=O)c2c(NC(=O)NNC(=O)c4cc(OC)c(OC)c(OC)c4)cccc2-3)cc1 | 0.02 | 0.007 | 
